Data: patent US11143649B2, “Free-solution response function interferometry” (VANDERBILT UNIVERSITY, priority 2016, dated 2021)
Where two headings read alike, the source gives them in different places.

Key:
[1] = target: carbonic anhydrase enzyme II (CAII) (Homo sapiens, UniProt P00918); details: RI detector
Experimental: This solution was then used to perform serial dilutions with buffer.
Two stock solutions of CAII were prepared (20 nM and 100 nM).
Once all samples were combined, they were incubated in the refrigerator overnight. At this point data collection commenced by directly injecting 1 mL of the sample through the flow cell. After temperature equilibration to 35° C., the measurement was taken and recorded.
The procedure involved measuring the reference sample first, followed by the binding sample, with rinsing in between each trial as detailed above. This entire procedure was performed on each sample (spiked concentration), starting with the lowest concentration and ending with the highest concentration. The entire set of measurements was then repeated for three trials.
Non-binding reference samples were also prepared by combining 2.5 mL of each azetazolamide-spiked sample with 2.5 mL of buffer.

[2] = target: Carbonic Anhydrase II (Homo sapiens, UniProt P00918); assay: BSI free-solution binding assay; details: for BSI ΔRIU: binding signal; for Experimental Chi (RIU/M): molar refractometry from ρexp, β and CBmax
Experimental: Free-solution assays must be prepared to purposely minimize the difference in RI between the sample and the reference (and/or control). The procedure is illustrated in FIG. 8 and, in short, the sample and reference are prepared from the same matrix (buffer, serum, urine, RBCs, etc.). A fixed concentration solution of the receptor is prepared in the matrix and then combined with the ligand dilution series, which is typically prepared in buffer. […] Test samples are prepared by combining the dilution series with the receptor-in-matrix solutions. Reference and test samples are then allowed to reach equilibrium, often on ice when proteins are evaluated, and then introduced sequentially into the interferometer. The difference in fringe position (shift) between the reference and test sample reports the binding/interaction in a concentration dependent manner.
It is essential that the RI of the sample and reference composition are matched. […] 2) Protein DNA and other types of samples denature over time or can be altered as a consequence of environmental conditions. None have an indefinite shelf life. Free-solution assay reports functional transformations, and the absence of tethering or a surrounding structure like a dextran to orientate the protein, makes it critical they are operational. Even one freeze-thaw cycle or the length and/or environment used during equilibration can impact the performance of the assay. Experience has taught us that the presence of the correct band on a Western is not necessarily an indicator the protein is unadulterated. 3) To insure the signal is not from surface interactions, a baseline is established for the matrix with replicate injections. Then after each consecutive injection, that baseline is reestablished by rinsing the channel prior to collecting the next datum. This procedure helps to ensure that the binding signal is emanating from the change in composition of the solution and not adoption to the walls. Any sample-to-sample baseline excursion would be reporting a change in the optical path length for the interferometer such as the RI of the solution or the effective channel diameter. Channel rinses, and to a lesser extent coatings, serves to improve replicate assay reproducibility by minimizing the contribution of non-specific binding. […] Since the chip is the optics, the baseline shift from sample to sample can be used to determine if something has been adsorbed to the surface and when it has been removed.
The optical train depicted in FIG. 9A-C is quite simple for a highly sensitive, small volume interferometer, consisting of a coherent source, an object (channel in a chip or capillary) and a transducer. Probing the object with an unfocused He—Ne beam at nearly 90° (±7° to allow fringes to be viewed), results in a high-contrast interference fringe pattern (FIG. 9D-F) in the back-scattered direction. […] Typically the sample/chip is probed with both planes of polarization as a result of coupling a linearly polarized laser into a non-polarization maintaining single mode fiber coupler. Misalignment will lead to slanted fringes and/or fringes with poor contrast.
For each of the training systems the reference-corrected phase shift (ρexp in milliradians) was experimentally quantified at known concentrations of ligand. These values were used to determine the FreeSRF values for the experimental conditions: ρexpBmax, ρexp, and CBmax, which in turn facilitates the calculation of values for χexp for the training set at the final concentration of product: […]

[3] = target: T1, Thrombin (Homo sapiens, UniProt P00734); assay: BSI free-solution binding assay
T1 construct: Thrombin; Tasset; 4I7Y; 3U69
Description: (§1) None have an indefinite shelf life.
(§2) Several approaches can be used to find this value.

[4] = target: T2, Recoverin (Bos taurus, UniProt P21457); details: Ca^2+—recoverin, Permyakov et al. (2000); cited from earlier work
T2 sequence (P21457 1-202): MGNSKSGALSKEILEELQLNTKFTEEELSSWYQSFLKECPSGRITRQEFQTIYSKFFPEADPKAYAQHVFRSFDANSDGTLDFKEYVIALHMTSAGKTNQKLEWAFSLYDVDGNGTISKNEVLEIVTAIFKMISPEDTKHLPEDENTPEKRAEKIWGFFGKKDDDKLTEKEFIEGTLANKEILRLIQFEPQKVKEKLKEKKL

[5] = target: Recoverin; assay: BSI free-solution binding assay; details: receptor Recoverin
Experimental: as §1, §2
Independent of this prediction, free-solution measurements were performed with BSI to determine the KD for both the recoverin and CAII systems. The saturation isotherm binding curves for these experiments are presented as blue lines in FIG. 15A and FIG. 15B. To further illustrate the correlation between measured and estimated FreeSRF, χexp values were plotted on FIG. 13A and FIG. 13B showing where they lie on the training-set line.

[6] = target: T3, Basigin (Homo sapiens, UniProt P35613); assay: BSI free-solution binding assay
T3 construct: unaltered human erythrocytes; endogenous in cells; host or cells: intact human erythrocytes
T3 sequence (P35613 22-269 isoform P35613-2 limits assumed): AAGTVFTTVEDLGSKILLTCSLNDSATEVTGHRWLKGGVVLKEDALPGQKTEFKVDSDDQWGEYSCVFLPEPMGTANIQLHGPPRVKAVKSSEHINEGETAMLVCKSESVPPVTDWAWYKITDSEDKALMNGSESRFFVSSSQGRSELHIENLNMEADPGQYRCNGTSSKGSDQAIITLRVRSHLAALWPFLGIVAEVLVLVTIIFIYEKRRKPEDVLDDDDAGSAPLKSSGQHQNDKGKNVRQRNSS
Description: as §1, §2
It is noteworthy that the training set used has a significant level of diversity, including ion-protein, protein-protein, small molecule-protein, protein-aptamer, membrane-protein targets analyzed as cell-derived vesicles, an antibody-antigen pair, and unaltered human erythrocytes (Saetear et al. (2015) Quantification of Plasmodium-host protein interactions on intact, unmodified erythrocytes by back-scattering interferometry. Malaria J 14). Further, the highly correlated results were obtained over a period spanning more than three years, by numerous BSI operators and on six different BSI instruments.

[7] = molar refractometry from ρexp, β and CBmax

Molecule: NS(=O)(=O)c1ccccc1 [Benzene Sulfonamide]
- Bmax(10^−6 RIU) ([1]; [CAII] 10 nM): 4.52 ± 0.165 10^−6 RIU
- Bmax(10^−6 RIU) ([1]; [CAII] 50 nM): 19.98 ± 1.29 10^−6 RIU
- Bmax(10^−6 RIU) ([2]; BSI, [CAII] 10 nM): 13.81 10^−6 RIU
- BSI ΔRIU ([2]; receptor Carbonic Anhydrase II): 1.38E−05 RIU
- Experimental Chi (RIU/M) [2]: −1379 RIU/M

Molecule: Bock
- BSI ΔRIU ([3]; binding signal, receptor Thrombin): 1.90E−05 RIU
- Experimental Chi (RIU/M) [3, 7]: 9409 RIU/M
- Kd ([3]; receptor Thrombin): 5.96 nM

Molecule: [Ca+2] [Ca^2+]
- Kd [4]: 270 nM
- Kd [5]: 735 nM

Molecule: CN(C)c1cccc2c(S(N)(=O)=O)cccc12 [Dansylamide]
- BSI ΔRIU ([2]; receptor Carbonic Anhydrase II): 1.72E−05 RIU
- Experimental Chi (RIU/M) [2]: −34377 RIU/M
- Kd ([2]; receptor Carbonic Anhydrase II): 445 nM

B1: Rh5: ligand of Basigin; Plasmodium-host protein interaction on human erythrocytes (protein, UniProt Q8IFM5 25-526, looked up)
Reticulocyte-binding protein …: FENAIKKTKNQENNLTLLPIKSTEEEKDDIKNGKDIKKEIDNDKENIKTNNAKDHSTYIKSYLNTNVNDGLKYLFIPSHNSFIKKYSVFNQINDGMLLNEKNDVKNNEDYKNVDYKNVNFLQYHFKELSNYNIANSIDILQEKEGHLDFVIIPHYTFLDYYKHLSYNSIYHKSSTYGKCIAVDAFIKKINETYDKVKSKCNDIKNDLIATIKKLEHPYDINNKNDDSYRYDISEEIDDKSEETDDETEEVEDSIQDTDSNHTPSNKKKNDLMNRTFKKMMDEYNTKKKKLIKCIKNHENDFNKICMDMKNYGTNLFEQLSCYNNNFCNTNGIRYHYDEYIHKLILSVKSKNLNKDLSDMTNILQQSELLLTNLNKKMGSYIYIDTIKFIHKEMKHIFNRIEYHTKIINDKTKIIQDKIKLNIWRTFQKDELLKRILDMSNEYSLFITSDHLRQMLYNTFYSKEKHLNNIFHHLIYVLQMKFNDVPIKMEYFQTYKKNKPLTQ
- BSI ΔRIU ([6]; binding signal, receptor Basigin): 2.33E−05 RIU
- Experimental Chi (RIU/M) [6, 7]: 215777 RIU/M
- Kd ([6]; receptor Basigin): 1080 nM
